From US20240252488A1 (KOREA RESEARCH INSTITUTE OF CHEMICAL TECHNOLOGY, priority 2020, published 2024)

Tests used:
MLKL [1] = molecular target: T1, MLKL (Homo sapiens, UniProt Q8NB16); test: Measurement of binding affinity with MLKL receptor (competitive binding assay, Kd); design: made in house; host or cells: HEK 293 cell line (T7 phage in E. coli BL21-derived host is also described)
T1 sequence (Q8NB16 1-471): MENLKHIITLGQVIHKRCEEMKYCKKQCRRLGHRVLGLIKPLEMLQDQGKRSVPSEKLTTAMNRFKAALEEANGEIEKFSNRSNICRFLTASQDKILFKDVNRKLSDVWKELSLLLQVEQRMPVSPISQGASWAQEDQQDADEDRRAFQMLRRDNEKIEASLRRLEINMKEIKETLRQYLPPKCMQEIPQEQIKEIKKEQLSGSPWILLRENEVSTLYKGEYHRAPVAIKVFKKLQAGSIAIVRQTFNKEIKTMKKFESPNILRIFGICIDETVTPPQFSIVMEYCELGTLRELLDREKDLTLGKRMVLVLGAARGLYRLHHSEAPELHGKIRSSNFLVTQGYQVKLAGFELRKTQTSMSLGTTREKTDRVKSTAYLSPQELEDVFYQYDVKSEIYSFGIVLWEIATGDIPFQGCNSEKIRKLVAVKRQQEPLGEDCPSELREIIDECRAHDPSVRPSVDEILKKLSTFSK
How it was run: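 MLKL was produced in HEK 293 cells and tagged with DNA for detection. Liganded beads were blocked with excess biotin and washed to cut non-specific binding, then compounds (111× DMSO stocks, 0.9% DMSO in assay) competed for binding. Eluate kinase was measured by qPCR for Kd.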

MLKL [2] = molecular target: T1, MLKL; test: MLKL degradation assay in HepG2 cell line (western blot); type: cell-based; design: endogenous in cells; host or cells: HepG2 or HaCaT; details: cell line not given; for Degradation assay (Degradation %) 1 μM: compound 1 μM; for Degradation assay (Degradation %) 10 μM: compound 10 μM
How it was run: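 Chemiluminescent western blot signal reports remaining MLKL protein in HepG2 cells after 20-24 h treatment with compound at a final 1 or 10 μM. Equal protein (10-15 μg, BCA) is loaded per lane.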

FADD−/− Jurkat cells = test: Necroptosis inhibition assay, TNF-α-induced necroptosis (CellTiter-Glo 2.0); type: cell-based, human; details: TNF-α 15 ng/mL; for Necroptosis inhibition assay (Rescue %) 10 μM: compound 10 μM; for Necroptosis inhibition assay (Rescue %) 1 μM: compound 1 μM
How it was run: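 Compound is added to cells at final concentrations of 0.1, 1 and 10 μM and left 30 minutes at room temperature. Necroptosis is induced with 15 ng/mL TNF-α, culture continues 20 to 24 hours at 37° C, and ATP-based luminescence reports viability.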

Compound	Kd (MLKL [1]) [nM]	Degradation assay (Degradation %) 1 μM (MLKL [2]) [%]	Degradation assay (Degradation %) 10 μM (MLKL [2]) [%]	Necroptosis inhibition assay (Rescue %) 1.1 μM (FADD−/− Jurkat cells; compound 1.1 µM)	Necroptosis inhibition assay (Rescue %) 10 μM (FADD−/− Jurkat cells) [%]	Necroptosis inhibition assay (Rescue %) 1 μM (FADD−/− Jurkat cells) [%]	Necroptosis inhibition assay (Rescue %) 1 μM (FADD−/− Jurkat cells; FADD−/− Jurkat cells) [%]	Necroptosis inhibition assay (Rescue %) 10 μM (FADD−/− Jurkat cells; FADD−/− Jurkat cells) [%]
Nc1ncc(-c2cnn(C3CCN(CCOC4CCN(C(=O)COc5ccc6c(c5)C(=O)N(C5CCC(=O)NC5=O)C6=O)CC4)CC3)c2)nc1C(=O)O[C@@H](C(=O)Nc1ccc(F)cc1)c1ccccc1 (stereo partly drawn) [TDH-332, (R)-2-((4-fluorophenyl)amino)-2-oxo-1-phenylethyl 3-amino-6-(1-(1-(2-((1-(2-((2-(2,6-dioxopiperidin-3-yl)-1,3-dioxoisoindolin-5-yl)oxy)acetyl)piperidin-4-yl)oxy)ethyl)piperidin-4-yl)-1H-pyrazol-4-yl)pyrazine-2-carboxylate]	2.6	61.62	63.17	68.62 (1.1 µM) %	37.17			
Nc1ncc(-c2cnn(C3CCN(C(=O)c4cn(C5CCN(C(=O)CNc6ccc7c(c6)C(=O)N(C6CCC(=O)NC6=O)C7=O)CC5)cn4)CC3)c2)nc1C(=O)O[C@@H](C(=O)Nc1ccc(F)cc1)c1ccccc1 (stereo partly drawn) [TDH-361, (R)-2-((4-fluorophenyl)amino)-2-oxo-1-phenylethyl 3-amino-6-(1-(1-(1-(1-((2-(2,6-dioxopiperidin-3-yl)-1,3-dioxoisoindolin-5-yl)glycyl)piperidin-4-yl)-1H-imidazole-4-carbonyl)piperidin-4-yl)-1H-pyrazol-4-yl)pyrazine-2-carboxylate]	1.7	51.1	48.59		10.01	19.10		
Nc1ncc(-c2cnn(C3CCN(CC4CCN(c5cccc6c5C(=O)N(C5CCC(=O)NC5=O)C6=O)CC4)CC3)c2)nc1C(=O)O[C@@H](C(=O)Nc1ccc(F)cc1)c1ccccc1 (stereo partly drawn) [TDH-149, (R)-2-((4-fluorophenyl)amino)-2-oxo-1-phenylethyl 3-amino-6-(1-(1-((1-(2-(2,6-dioxopiperidin-3-yl)-1,3-dioxoisoindolin-4-yl)piperidin-4-yl)methyl)piperidin-4-yl)-1H-pyrazol-4-yl)pyrazine-2-carboxylate]	40	48.51	77.36		55.19	82.1		
Nc1ncc(-c2cnn(C3CCN(CCOC4CCN(C(=O)C5CCN(C6=CC(=O)N(C7CCC(=O)NC7=O)C6=O)CC5)CC4)CC3)c2)nc1C(=O)O[C@@H](C(=O)Nc1ccc(F)cc1)c1ccccc1 (stereo partly drawn) [TDH-529, (R)-2-((4-fluorophenyl)amino)-2-oxo-1-phenylethyl 3-amino-6-(1-(1-(2-((1-(1-(1-(2,6-dioxopiperidin-3-yl)-2,5-dioxo-2,5-dihydro-1H-pyrrol-3-yl)piperidine-4-carbonyl)piperidin-4-yl)oxy)ethyl)piperidin-4-yl)-1H-pyrazol-4-yl)pyrazine-2-carboxylate]	0.25	24.89	66.48				36.72	15.86
Nc1ncc(-c2cnn(C3CCN(CCCN4CCN(C(=O)CCc5cccc6c5CN(C5CCC(=O)NC5=O)C6=O)CC4)CC3)c2)nc1C(=O)O[C@@H](C(=O)Nc1ccc(F)cc1)c1ccccc1 (stereo partly drawn) [TDH-386, (R)-2-((4-fluorophenyl)amino)-2-oxo-1-phenylethyl 3-amino-6-(1-(1-(3-(4-(3-(2-(2,6-dioxopiperidin-3-yl)-1-oxoisoindolin-4-yl)propanoyl)piperazin-1-yl)propyl)piperidin-4-yl)-1H-pyrazol-4-yl)pyrazine-2-carboxylate]	0.93	79.68	71.14		20.76	34.89		
